The text below walks through data of ChEMBL document CHEMBL5316333, “Potent Long-Acting Inhibitors Targeting the HIV-1 Capsid Based on a Versatile Quinazolin-4-one Scaffold” (J Med Chem, 2023).

≈ marks a conversion by molar mass, not a printed value. Bounds are passed on as bounds.

Data set [1] is described as follows: (§1) Cytotoxicity against human MT2 cells assessed as reduction in cell viability incubated for 4 days by XTT assay. Format: toxicity, cell-based. The note with it: MT2 cells, time 4 day.
Data set [2] can be described thus: Selectivity index, ratio of CC50 for cytotoxicity against human MT2 cells to EC50 for antiviral activity against HIV-1 NLRep-Rluc infected in human MT2 cells. Format: toxicity, cell-based. Conditions: read-out: Ratio CC50/EC50.
The test system of data set [3] is Human immunodeficiency virus 1. Kind of data set: Antiviral activity against HIV-1 NLRep-Rluc infected in human MT2 cells assessed as inhibition of viral growth incubated for 96 hrs by renilla luciferase assay. Format: functional, organism-based.
For a further data set, the system named is MT2. The data set is described as §1. Format: toxicity, cell-based. The note with it: mt2, 96 h, 96 h, time 4 day.
Data set [4] in a line: Clearance in Sprague-Dawley rat at 1 mg/kg, iv and measured upto 96 hrs by LC-MS/MS analysis. Format: ADME, organism-based. The note with it: in vivo.
Data set [5] can be described thus: Half life in Beagle dog plasma at 5 mg/kg,SC and measured after 21 days by LC-MS/MS analysis. Format: ADME, organism-based, Canis lupus familiaris. The note with it: time 21 day.
Data set [6] can be described thus: Half life in Wistar Han rat plasma at 1 mg/kg,iv and measured upto 96 hrs by LC-MS/MS analysis. Format: ADME, organism-based.
A short description of data set [7]: Toxicity in male Beagle dog assessed as fold increase in GLDH level […] at 100 mg/kg, po QD for 7 days relative to baseline pretreatment. Format: organism-based, Canis lupus familiaris. Conditions: in vivo, 168 h, time 7 day.
A short description of data set [8]: Toxicity in female Beagle dog assessed as change in TBA level at 100 mg/kg, po QD for 7 days relative to baseline pretreatment. The note with it: in vivo, 168 h, time 7 day. Format: organism-based, Canis lupus familiaris.
The nature of data set [9]: Toxicity in female Beagle dog assessed as change in ALT level at 100 mg/kg, po QD for 7 days relative to baseline pretreatment. Conditions: in vivo, 168 h, time 7 day. Format: organism-based, Canis lupus familiaris.
Data set [10] is described as follows: Toxicity in female Beagle dog assessed as change in GLDH level at 100 mg/kg, po QD for 7 days relative to baseline pretreatment. Conditions: in vivo, 168 h, time 7 day. Format: organism-based, Canis lupus familiaris.
Data set [11] is described as follows: Toxicity in male Beagle dog assessed as increase in mitotic figures in hepatocytes at 100 mg/kg, po QD for 7 days by microscopy. Format: organism-based, Canis lupus familiaris. The note with it: in vivo, 168 h, time 7 day.
Data set [12] in a line: Toxicity in male Beagle dog assessed as fold increase in AST level […] at 100 mg/kg, po QD for 7 days relative to baseline pretreatment. Format: organism-based, Canis lupus familiaris. The note with it: in vivo, 168 h, time 7 day.
The nature of data set [13]: Half life in Wistar Han rat plasma at 20 mg/kg, IM and measured after 21 days by LC-MS/MS analysis. Format: ADME, organism-based. The note with it: time 21 day.
Data set [14] in a line: Toxicity in male Beagle dog assessed as hyperplasia of Kupffer cells at 100 mg/kg, po QD for 7 days by microscopy. The note with it: in vivo, 168 h, time 7 day. Format: organism-based, Canis lupus familiaris.
The nature of data set [15]: Half life in Beagle dog plasma at 5 mg/kg,IM and measured after 21 days by LC-MS/MS analysis. Format: ADME, organism-based, Canis lupus familiaris. The note with it: time 21 day.
A short description of data set [16]: Cmax in female Beagle dog at 100 mg/kg, po QD and measured after 1 day by LC-MS/MS analysis. On the set-up: dose 100 mg/kg, time 1 day, route po. Format: ADME, organism-based, Canis lupus familiaris. The note with it: in vivo.
Data set [17] is described as follows: Solubility of the compound in FaSSIF at pH 6.5. Format: physicochemical.
Data set [18] is described as follows: Solubility of the compound at pH 2 buffer. Format: physicochemical.
A short description of data set [19]: AUC (0 to 24) in male Beagle dog at 100 mg/kg, po QD and measured after 1 day by LC-MS/MS analysis. Format: ADME, organism-based, Canis lupus familiaris. On the set-up: dose 100 mg/kg, time 1 day, route po. Conditions: in vivo.
Data set [20] is described as follows: Toxicity in female Beagle dog assessed as change in ALP level at 100 mg/kg, po QD for 7 days relative to baseline pretreatment. Conditions: in vivo, 168 h, time 7 day. Format: organism-based, Canis lupus familiaris.
Data set [21] is described as follows: Cmax in male Beagle dog at 100 mg/kg, po QD and measured after 1 day by LC-MS/MS analysis. Format: ADME, organism-based, Canis lupus familiaris. On the set-up: time 1 day, dose 100 mg/kg, route po. Conditions: in vivo.
Data set [22] in a line: AUC (0 to 24) in male Beagle dog at 100 mg/kg, po QD and measured after 7 days by LC-MS/MS analysis. The arrangement: dose 100 mg/kg, time 7 day, route po. Format: ADME, organism-based, Canis lupus familiaris. The note with it: in vivo.
Data set [23] is described as follows: Toxicity in male Beagle dog assessed as fold increase in TBA level […] at 100 mg/kg, po QD for 7 days relative to baseline pretreatment. Format: organism-based, Canis lupus familiaris. The note with it: in vivo, 168 h, time 7 day.
A short description of data set [24]: AUC (0 to 24) in female Beagle dog at 100 mg/kg, po QD and measured after 1 day by LC-MS/MS analysis. Format: ADME, organism-based, Canis lupus familiaris. The arrangement: time 1 day, dose 100 mg/kg, route po. The note with it: in vivo.
Data set [25] can be described thus: Plasma concentration in Beagle dog at 5 mg/kg, SC and measured after 10 days by LC-MS/MS analysis. Format: ADME, organism-based, Canis lupus familiaris. Conditions: time 10 day.
Data set [26] is described as follows: Half life in Wistar Han rat plasma at 20 mg/kg, SC and measured after 21 days by LC-MS/MS analysis. Format: ADME, organism-based. The note with it: time 21 day.
A short description of data set [27]: Cmax in female Beagle dog at 100 mg/kg, po QD and measured after 7 days by LC-MS/MS analysis. Format: ADME, organism-based, Canis lupus familiaris. On the set-up: time 7 day, dose 100 mg/kg, route po. Conditions: in vivo.
Data set [28] can be described thus: AUC (0 to 24) in female Beagle dog at 100 mg/kg, po QD and measured after 7 days by LC-MS/MS analysis. Format: ADME, organism-based, Canis lupus familiaris. The note with it: in vivo. On the set-up: dose 100 mg/kg, time 7 day, route po.
Data set [29] can be described thus: Plasma concentration in Wistar Han rat at 20 mg/kg, IM and measured at 21 days by LC-MS/MS analysis. Format: ADME, organism-based. The note with it: time 21 day.
The nature of data set [30]: Cmax in male Beagle dog at 100 mg/kg, po QD and measured after 7 days by LC-MS/MS analysis. Format: ADME, organism-based, Canis lupus familiaris. On the set-up: dose 100 mg/kg, time 7 day, route po. The note with it: in vivo.
Data set [31] in a line: Drug metabolism in Beagle dog plasma assessed as metabolite formation at 100 mg/kg, po for 7 days by LC-MS/MS analysis. Format: ADME, organism-based, Canis lupus familiaris. Conditions: in vivo, 168 h, time 7 day.
Data set [32] can be described thus: Solubility of compound in FeSSIF at pH 5. Format: physicochemical.
Data set [33] can be described thus: Plasma concentration in Beagle dog at 5 mg/kg, IM and measured after 10 days by LC-MS/MS analysis. Conditions: time 10 day. Format: ADME, organism-based, Canis lupus familiaris.
The nature of data set [34]: Solubility of the compound in FaSSGF at pH 1.6. Format: physicochemical.
Data set [35] can be described thus: Toxicity in female Beagle dog assessed as change in AST level at 100 mg/kg, po QD for 7 days relative to baseline pretreatment. Format: organism-based, Canis lupus familiaris. The note with it: in vivo, 168 h, time 7 day.
A short description of data set [36]: Solubility of the compound at pH 6.5 buffer. Format: physicochemical.
The nature of data set [37]: Toxicity in male Beagle dog assessed as fold increase in ALT level […] at 100 mg/kg, po QD for 7 days relative to baseline pretreatment. Format: organism-based, Canis lupus familiaris. The note with it: in vivo, 168 h, time 7 day.
The nature of data set [38]: Plasma concentration in Wistar Han rat at 20 mg/kg, SC and measured at 21 days by LC-MS/MS analysis. Conditions: time 21 day. Format: ADME, organism-based.
Data set [39] in a line: Toxicity in male Beagle dog assessed as fold increase in ALP level […] at 100 mg/kg, po QD for 7 days relative to baseline pretreatment. Format: organism-based, Canis lupus familiaris. Conditions: in vivo, 168 h, time 7 day.

As a reminder, the CC50 is the concentration giving 50% cytotoxicity. By EC50 is commonly meant the concentration giving half of the maximal effect. In the case of `COc1ccc2nc([C@H](Cc3cc(F)cc(F)c3)NC(=O)Cn3nc(C(F)F)c4c3C(F)(F)[C@@H]3C[C@H]43)n(-c3ccc(Cl)c4c(NS(C)(=O)=O)nn(C)c34)c(=O)c2c1` (stereo in doubt; 12c), the CC50 at 96 h in [1] is above 20000 nM. For the same compound, the selectivity ratio in [2] was above 1000. In addition, the 50% effective concentration (EC50) in [3] (mt2) worked out at 0.15 nM.
For `COc1cccc2nc([C@H](Cc3cc(F)cc(F)c3)NC(=O)Cn3nc(C(F)F)c4c3C(F)(F)[C@@H]3C[C@H]43)n(-c3ccc(Cl)c4c(NS(C)(=O)=O)nn(C)c34)c(=O)c12` (stereo in doubt; 12d), the 50% cytotoxic concentration (CC50) in the data set with MT2 is above 20000 nM. In data set [2], the selectivity ratio is above 1000. Besides, the EC50 in [3] (mt2) was found to be 0.11 nM.
By clearance is commonly meant the rate of elimination divided by the concentration. A low value points to inefficient removal. For `COc1ccc2c(=O)n(-c3ccc(Cl)c4c(NS(C)(=O)=O)nn(C)c34)c([C@H](Cc3cc(F)cc(F)c3)NC(=O)Cn3nc(C(F)F)c4c3C(F)(F)[C@@H]3C[C@H]43)nc2c1` (stereo in doubt; 12b), in the data set with MT2, the 50% cytotoxic concentration (CC50) was above 20000 nM. Besides, in data set [2], the selectivity ratio is above 1000. For the same compound, the clearance in [4] was found to be 8.3 mL/min/kg. The EC50 in [3] (mt2) came to 0.058 nM.
The like results for `Cn1nc(NS(C)(=O)=O)c2c(Cl)ccc(-n3c([C@H](Cc4cc(F)cc(F)c4)NC(=O)Cn4nc(C(F)F)c5c4C(F)(F)[C@@H]4C[C@H]54)nc4ccccc4c3=O)c21` (stereo in doubt; 12a) were, in that order, above 20000 nM, above 1000, 30 mL/min/kg and 0.049 nM.
A word on the half-life: it is the time in which the quantity being followed falls by half. Low readings indicate rapid decline, high ones slow decline. By Cmax is commonly meant the peak of the concentration-time curve. One may read the solubility as the dissolved amount per volume that the medium holds. As a reminder, the AUC is the area under the concentration-time curve, a measure of exposure. Take `C[C@@H]1CN(c2ccc3c(=O)n(-c4ccc(Cl)c5c(NS(C)(=O)=O)nn(C)c45)c([C@H](Cc4cc(F)cc(F)c4)NC(=O)Cn4nc(C(F)F)c5c4C(F)(F)[C@@H]4C[C@H]54)nc3c2)C[C@H](C)O1`: the half-life in data set [5] was 39 h; in data set [6], 3.2 h; in [13] it was 39 h; in [15], 39 h; in data set [26], 39 h. In addition, the “fold change (FC)” value came to 94 in data set [7]; 4.8 in [12]; 3 in data set [23]; 87 in data set [37]; 4.9 in data set [39]. In addition, the Activity result is “Non-Toxic” in data set [8]; “Non-Toxic” in data set [9]; “Non-Toxic” in data set [10]; “Toxic” in data set [11]; “Toxic” in [14]; “Non-Toxic” in [20]. The Activity result in [35] is “Non-Toxic”. Also, the Cmax in [16] was 344 ng/mL; in data set [21], 451 ng/mL; in [27], 1320 ng/mL; in data set [30], 13600 ng/mL. Also, the solubility in data set [17] was below 1 µg/mL; in data set [18], below 1 µg/mL; in data set [32] it was 22 µg/mL (≈ 24 µM); in data set [34] it was below 1 µg/mL; in data set [36], below 1 µg/mL. Moreover, the AUC at 24 h stood at 3710 ng·h/mL in [19] and 1360 ng·h/mL in data set [24]. Besides, the area under the curve (AUC) at 168 h in [22] stood at 299000 ng·h/mL; in data set [28], 6780 ng·h/mL. Moreover, the concentration at 240 h in data set [25] and in [33] was below 2.2 ng/mL throughout. For the same compound, the concentration at 504 h in data set [29] and in data set [38] was 10 ng/mL in each case. The Drug metabolism result in [31] is “Metabolite_Detected”. Besides, the clearance in [4] came out at 8.9 mL/min/kg. The EC50 in data set [3] (Human immunodeficiency virus 1, NLRep-Rluc, MT2, 96 h) worked out at 0.039 nM.
